Measured values taken from US20060069132A1, “Azolecarboxamide herbicides” (priority 2004, published 2006).
Where two headings read alike, the source gives them in different places.

Legend:
redroot pigweed = experiment: Test A pre-/postemergence herbicide test; format: in vivo, Amaranthus retroflexus; conditions: for pest or weed control at 500 g/ha / pest or weed control at 2000 g/ha: Amaranthus retroflexus, 240 h
Outline: (§1)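 Visual injury rating on a 0–100 scale (0 no effect, 100 complete control) versus untreated controls, about ten days after treatment in greenhouse. Pre: directed soil spray onto seeded sandy loam. Post: spray to runoff on plants 2–10 cm tall at one- to two-leaf stage.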

common ragweed = experiment: Test C pre-/postemergence herbicide test; format: in vivo, Ambrosia elatior; set-up: key to Plant response rating, Ragweed: 0 = no effect, 100 = complete control
Excerpt: (§2) Seeds of plant species selected from bermudagrass (Cynodon dactylon (L.) Pers.), Surinam grass (Urochloa decumbens (Staph) R. D. Webster, previously named Brachiaria decumbens Stapf), cocklebur (Xanthium strumarium L.), corn (Zea mays L.), large crabgrass (Digitaria sanguinalis (L.) Scop.), woolly cupgrass (Eriochloa villosa (Thunb.) Kunth), giant foxtail (Setaria faberi Herrm.), goosegrass (Eleusine indica (L.) Gaertn.), johnsongrass (Sorghum halepense (L.) Pers.), kochia (Kochia scoparia (L.) Schrad.), lambsquarters (Chenopodium album L.), morningglory (Ipomoea coccinea L.), eastern black nightshade (Solanum ptycanthum Dunal), yellow nutsedge (Cyperus esculentus L.), pigweed (Amaranthus retroflexus L.), common ragweed (Ambrosia elatior L.), soybean (Glycine max (L.) Merr.), common (oilseed) sunflower (Helianthus annuus L.) and velvetleaf (Abutilon theophrasti Medik.) were planted and treated preemergence with test chemicals formulated in a non-phytotoxic solvent mixture which included a surfactant.
(§3) At the same time, plants selected from these crop and weed species and also winter barley (Hordeum vulgare L.), blackgrass (Alopecurus myosuroides Huds.), canarygrass (Phalaris minor Retz.), chickweed (Stellaria media (L.) Vill.), downy bromegrass (Bromus tectorum L.), green foxtail (Setaria viridis (L.) Beauv.), Italian ryegrass (Lolium multiflorum Lam.), wheat (Triticum aestivum L.), wild oat (Avenafatua L.) and windgrass (Apera spica-venti (L.) Beauv.) were treated with postemergence applications of some of the test chemicals formulated in the same manner. Plants ranged in height from 2 to 18 cm (1- to 4-leaf stage) for postemergence treatments. Plant species in the flooded paddy test consisted of rice (Oryza sativa), smallflower umbrella sedge (Cyperus difformis L.), ducksalad (Heteranthera limosa (Sw.) Willd.) and barnyardgrass (Echinochloa crus-galli (L.) Beauv.) grown to the 2-leaf stage for testing. Treated plants and controls were maintained in a greenhouse for 12 to 14 days, after which time all species were compared to controls and visually evaluated. Plant response ratings, summarized in Table C, are based on a scale of 0 to 100 where 0 is no effect and 100 is complete control. A dash (-) response means no test result.

large crabgrass = experiment: Test A pre-/postemergence herbicide test; format: in vivo, Digitaria sanguinalis; conditions: for pest or weed control at 500 g/ha / pest or weed control at 2000 g/ha: Digitaria sanguinalis, 240 h
Outline: as §1

giant foxtail = experiment: Test C pre-/postemergence herbicide test; format: in vivo, Setaria faberi
Excerpt: as §2, §3

woolly cupgrass = experiment: Test C pre-/postemergence herbicide test; format: in vivo, Eriochloa villosa
Excerpt: as §2, §3

goosegrass = experiment: Test C pre-/postemergence herbicide test; format: in vivo, Eleusine indica
Excerpt: as §2, §3

bermudagrass = experiment: Test C pre-/postemergence herbicide test; format: in vivo, Cynodon dactylon
Excerpt: as §2, §3

barnyardgrass = experiment: Test A pre-/postemergence herbicide test; format: in vivo, Echinochloa crus-galli; conditions: for pest or weed control at 500 g/ha / pest or weed control at 2000 g/ha: Echinochloa crus-galli, 240 h
Outline: as §1

[1] = Postemergence, 500 g ai/ha, 0 to 100 scale, 0 no effect, 100 complete control
[2] = Postemergence, 2000 g ai/ha, 0 to 100 scale, 0 no effect, 100 complete control
[3] = Preemergence, 2000 g ai/ha, visual rating, 0 to 100 scale (0 no effect, 100 complete control)
[4] = preemergence, 500 g ai/ha, visual injury, 0 to 100 scale (0 no effect, 100 complete control)
[5] = Postemergence, 250 g ai/ha, scale 0 to 100, 0 no effect, 100 complete control
[6] = Postemergence, 500 g ai/ha, scale 0 to 100, 0 no effect, 100 complete control
[7] = postemergence, 125 g ai/ha, scale 0 to 100
[8] = postemergence, 62 g ai/ha, scale 0 to 100
[9] = Postemergence, 500 g ai/ha, scale 0 to 100

CCn1nc(C(C)(C)C)cc1C(=O)Nc1cc(OC(F)(F)F)ccc1F [Compound 338]
Pigweed plant response rating (redroot pigweed; [1]): 70 | Plant response rating, Pigweed (redroot pigweed; [2]): 95 | Pigweed plant response rating (redroot pigweed; [3]): 90 | Pigweed plant response rating (redroot pigweed; [4]): 55 | Plant response rating, Ragweed (common ragweed; [5]): 5 | Plant response rating, Ragweed (common ragweed; [6]): 10 | Plant response rating, Ragweed (common ragweed; [7]): 5 | Plant response rating, Ragweed (common ragweed; [8]): 0 | Crabgrass, Large plant response rating (large crabgrass; [1]): 20 | Plant response rating, Crabgrass, Large (large crabgrass; [2]): 45 | Crabgrass, Large plant response rating (large crabgrass; [3]): 100 | Crabgrass, Large plant response rating (large crabgrass; [4]): 65 | Plant response rating, Foxtail, Giant (giant foxtail; [5]): 10 | Plant response rating, Foxtail, Giant (giant foxtail; [6]): 10 | Plant response rating, Foxtail, Giant (giant foxtail; [7]): 5 | Plant response rating, Foxtail, Giant (giant foxtail; [8]): 5 | Plant response rating, Cupgrass, Woolly (woolly cupgrass; [5]): 0 | Plant response rating, Cupgrass, Woolly (woolly cupgrass; [6]): 0 | Plant response rating, Cupgrass, Woolly (woolly cupgrass; [7]): 0 | Plant response rating, Cupgrass, Woolly (woolly cupgrass; [8]): 0 | Plant response rating, Goosegrass (goosegrass; [5]): 10 | Plant response rating, Goosegrass (goosegrass; [6]): 10 | Plant response rating, Goosegrass (goosegrass; [7]): 5 | Plant response rating, Goosegrass (goosegrass; [8]): 0 | Bermudagrass plant response rating (bermudagrass; [9]): 5 | Plant response rating, Bermudagrass (bermudagrass; [5]): 0 | Plant response rating, Bermudagrass (bermudagrass; [7]): 0 | Plant response rating, Bermudagrass (bermudagrass; [8]): 0 | Barnyardgrass plant response rating (barnyardgrass; [1]): 20 | Plant response rating, Barnyardgrass (barnyardgrass; [2]): 35 | Barnyardgrass plant response rating (barnyardgrass; [3]): 95 | Barnyardgrass plant response rating (barnyardgrass; [4]): 60

CCn1nc(C(C)(C)C)cc1C(=O)Nc1cccc(C(=O)OCCF)c1 [Compound 82, 2-fluoroethyl 3-[[[3-(1,1-dimethylethyl)-1-ethyl-1H-pyrazol-5-yl]-carbonyl]amino]benzoate]
pest or weed control at 500 g/ha (redroot pigweed; post-emergence, Postemergence, 500 g ai/ha, 0 to 100 scale, 0 no effect, 100 complete control, read-out: Plant response rating, Pigweed): 50% | pest or weed control at 2000 g/ha (redroot pigweed; post-emergence, Postemergence, 2000 g ai/ha, 0 to 100 scale, 0 no effect, 100 complete control, read-out: Plant response rating, Pigweed): 50% | pest or weed control at 500 g/ha (redroot pigweed; pre-emergence, Preemergence, 500 g ai/ha, visual rating, 0 to 100 scale (0 no effect, 100 complete control), read-out: Pigweed plant response rating): 5% | pest or weed control at 2000 g/ha (redroot pigweed; pre-emergence, Preemergence, 2000 g ai/ha, 0 to 100 scale, 0 no effect, 100 complete control, read-out: Pigweed plant response rating): 35% | pest or weed control at 250 g/ha (common ragweed; Ambrosia artemisiifolia, post-emergence, Postemergence, 250 g ai/ha, scale 0 to 100, 0 no effect, 100 complete control, read-out: Plant response rating, Ragweed): 10% | pest or weed control at 125 g/ha (common ragweed; Ambrosia artemisiifolia, post-emergence, postemergence, 125 g ai/ha, scale 0 to 100, read-out: Plant response rating, Ragweed): 0% | pest or weed control at 62 g/ha (common ragweed; Ambrosia artemisiifolia, post-emergence, postemergence, 62 g ai/ha, scale 0 to 100, read-out: Plant response rating, Ragweed): 0% | Ragweed plant response rating (common ragweed; [9]): 30 | pest or weed control at 500 g/ha (large crabgrass; post-emergence, Postemergence, 500 g ai/ha, 0 to 100 scale, 0 no effect, 100 complete control, read-out: Plant response rating, Crabgrass, Large): 20% | pest or weed control at 2000 g/ha (large crabgrass; post-emergence, Postemergence, 2000 g ai/ha, 0 to 100 scale, 0 no effect, 100 complete control, read-out: Plant response rating, Crabgrass, Large): 30% | pest or weed control at 500 g/ha (large crabgrass; pre-emergence, Preemergence, 500 g ai/ha, visual rating, 0 to 100 scale (0 no effect, 100 complete control), read-out: Crabgrass, Large plant response rating): 0% | pest or weed control at 2000 g/ha (large crabgrass; pre-emergence, Preemergence, 2000 g ai/ha, 0 to 100 scale, 0 no effect, 100 complete control, read-out: Crabgrass, Large plant response rating): 0% | Foxtail, Giant plant response rating (giant foxtail; [9]): 30 | pest or weed control at 250 g/ha (giant foxtail; Setaria faberi, post-emergence, 312 h, Postemergence, 250 g ai/ha, scale 0 to 100, 0 no effect, 100 complete control, read-out: Plant response rating, Foxtail, Giant): 10% | pest or weed control at 125 g/ha (giant foxtail; Setaria faberi, post-emergence, 312 h, postemergence, 125 g ai/ha, scale 0 to 100, read-out: Plant response rating, Foxtail, Giant): 0% | pest or weed control at 62 g/ha (giant foxtail; Setaria faberi, post-emergence, 312 h, postemergence, 62 g ai/ha, scale 0 to 100, read-out: Plant response rating, Foxtail, Giant): 0% | pest or weed control at 250 g/ha (woolly cupgrass; Eriochloa villosa, post-emergence, 312 h, Postemergence, 250 g ai/ha, scale 0 to 100, 0 no effect, 100 complete control, read-out: Plant response rating, Cupgrass, Woolly): 80% | pest or weed control at 125 g/ha (woolly cupgrass; Eriochloa villosa, post-emergence, 312 h, postemergence, 125 g ai/ha, scale 0 to 100, read-out: Plant response rating, Cupgrass, Woolly): 60% | Cupgrass, Woolly plant response rating (woolly cupgrass; [9]): 80 | pest or weed control at 250 g/ha (goosegrass; Eleusine indica, post-emergence, 312 h, Postemergence, 250 g ai/ha, scale 0 to 100, 0 no effect, 100 complete control, read-out: Plant response rating, Goosegrass): 10% | pest or weed control at 125 g/ha (goosegrass; Eleusine indica, post-emergence, 312 h, postemergence, 125 g ai/ha, scale 0 to 100, read-out: Plant response rating, Goosegrass): 10% | pest or weed control at 62 g/ha (goosegrass; Eleusine indica, post-emergence, 312 h, postemergence, 62 g ai/ha, scale 0 to 100, read-out: Plant response rating, Goosegrass): 0% | Goosegrass plant response rating (goosegrass; [9]): 10 | pest or weed control at 250 g/ha (bermudagrass; Cynodon dactylon, post-emergence, 312 h, Postemergence, 250 g ai/ha, scale 0 to 100, read-out: Bermudagrass plant response rating): 0% | pest or weed control at 500 g/ha (bermudagrass; Cynodon dactylon, post-emergence, 312 h, Postemergence, 500 g ai/ha, scale 0 to 100, read-out: Bermudagrass plant response rating): 10% | pest or weed control at 125 g/ha (bermudagrass; Cynodon dactylon, post-emergence, 312 h, postemergence, 125 g ai/ha, scale 0 to 100, read-out: Plant response rating, Bermudagrass): 0% | pest or weed control at 62 g/ha (bermudagrass; Cynodon dactylon, post-emergence, 312 h, postemergence, 62 g ai/ha, scale 0 to 100, read-out: Plant response rating, Bermudagrass): 0% | pest or weed control at 500 g/ha (barnyardgrass; post-emergence, Postemergence, 500 g ai/ha, 0 to 100 scale, 0 no effect, 100 complete control, read-out: Plant response rating, Barnyardgrass): 20% | pest or weed control at 2000 g/ha (barnyardgrass; post-emergence, Postemergence, 2000 g ai/ha, 0 to 100 scale, 0 no effect, 100 complete control, read-out: Plant response rating, Barnyardgrass): 20% | pest or weed control at 500 g/ha (barnyardgrass; pre-emergence, Preemergence, 500 g ai/ha, visual rating, 0 to 100 scale (0 no effect, 100 complete control), read-out: Barnyardgrass plant response rating): 0% | pest or weed control at 2000 g/ha (barnyardgrass; pre-emergence, Preemergence, 2000 g ai/ha, 0 to 100 scale, 0 no effect, 100 complete control, read-out: Barnyardgrass plant response rating): 0%
